The experiment concerns the target T1, Bcl-2 protein (Recombinant Human Bcl-2 Protein) (Homo sapiens, UniProt P10415).
T1 construct: purchased Novus Biologicals NBP2-34889
Briefly: AS-MS evaluation of binding of the Example 4 mixture library (1200 compounds/well) to Bcl-2, ASMS ratio (%). The gist of the method: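 A pooled 1200-compound mixture (20 nM each final) was incubated with 20 μM recombinant human Bcl-2 in pH 7.4 Tris-HCl buffer with NaCl, Tween-20 and DTT for 1 h at 23° C. in the dark. Bound ligands were separated by spin-column SEC and measured by reverse-phase LC/MS; ASMS ratio (%) was calculated against protein-free unfiltered standard and protein-free SEC blank.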

Where [1] appears, read: replicate n = 1, mixture library, value belongs to the MS peak assigned to the compound.
The mark [2] stands for this setting: replicate n = 2, mixture library, value belongs to the MS peak assigned to the compound.
Setting [3] is: AS-MS, Example 4 mixture library, Bcl-2, replicate n = 1.
[4] abbreviates: AS-MS, Example 4 mixture library, Bcl-2, replicate n = 2.
[5] abbreviates: AS-MS, mixture of 1200 compounds/well, Bcl-2 protein, replicate n = 1.
Where [6] appears, read: AS-MS, mixture of 1200 compounds/well, Bcl-2 protein, replicate n = 2.

Here are results for 27 compounds from patent US20250154686A1, “COMPOUND LIBRARY” (CHUGAI SEIYAKU KABUSHIKI KAISHA, priority 2021, published 2025).

T1 sequence (P10415 whole entry): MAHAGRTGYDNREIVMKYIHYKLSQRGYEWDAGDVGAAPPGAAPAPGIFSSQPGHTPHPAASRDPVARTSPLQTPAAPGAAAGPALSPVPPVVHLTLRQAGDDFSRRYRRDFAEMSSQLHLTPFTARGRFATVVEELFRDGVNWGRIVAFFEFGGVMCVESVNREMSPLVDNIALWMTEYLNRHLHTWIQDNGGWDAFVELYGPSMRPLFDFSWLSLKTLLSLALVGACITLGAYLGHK

For `CCOc1cccc(-c2csc(CN3CCN(c4ccc(C(=O)NS(C)(=O)=O)cc4)CC3)c2)c1` [Compound B2I067-01, 4-[4-[[4-(3-Ethoxyphenyl)thiophen-2-yl]methyl]piperazin-1-yl]-N-methylsulfonylbenzamide], the “ASMS ratio (%) n = 1” value under setting [1] turned out to be 0.0%. For the same compound, the “ASMS ratio (%) n = 2” value under setting [2] is given as 0.0%.

Consider `CCOc1cncc(-c2csc(C(=O)N3CCN(c4ccc(C(=O)NS(=O)(=O)CCC(F)(F)F)nn4)CC3)c2)c1` [Compound B2N002-01, 6-[4-[4-(5-Ethoxypyridin-3-yl)thiophene-2-carbonyl]piperazin-1-yl]-N-(3,3,3-trifluoropropylsulfonyl)pyridazine-3-carboxamide], for which the “ASMS ratio (%) n = 1” value under setting [3] is listed as 0.0%. The “ASMS ratio (%) n = 2” value under setting [4] is reported as 0.0%.

For `CCOc1cccc(-c2csc(C(=O)N3CCN(c4ccc(C(=O)NS(=O)(=O)C(C)(C)C)cc4)CC3)c2)c1` [Compound B2L023-01, N-tert-Butylsulfonyl-4-[4-[4-(3-ethoxyphenyl)thiophene-2-carbonyl]piperazin-1-yl]benzamide], the “ASMS ratio (%) n = 1” value under setting [1] amounted to 0.0%. For the same compound, the “ASMS ratio (%) n = 2” value under setting [2] turned out to be 0.0%.

As for `CCOc1cccc(-c2cc(CN3CCN(c4ccc(C(=O)NS(=O)(=O)CCC(F)(F)F)cc4)CC3)cc(OC(F)(F)F)c2)c1` [Compound B2N063-01, 4-[4-[[3-(3-Ethoxyphenyl)-5-(trifluoromethoxy)phenyl]methyl]piperazin-1-yl]-N-(3,3,3-trifluoropropylsulfonyl)benzamide], the “ASMS ratio (%) n = 1” value under setting [3] was −0.3%. For the same compound, the “ASMS ratio (%) n = 2” value under setting [4] is −3.8%.

With `CCOc1cccc(-c2ccc(C(C)N3CCN(c4ccc(C(=O)NS(=O)(=O)CCC(F)(F)F)cc4)CC3)cc2)c1` (stereo not shown) [Compound B2N097-01, 4-[4-[1-[4-(3-Ethoxyphenyl)phenyl]ethyl]piperazin-1-yl]-N-(3,3,3-trifluoropropylsulfonyl)benzamide], the “ASMS ratio (%) n = 1” value under setting [3] was 0.0%. In addition, under setting [4], the “ASMS ratio (%) n = 2” value is reported as 0.0%.

Consider `CCOc1cncc(-c2cc(CN3CCN(c4ccc(C(=O)NS(=O)(=O)CCC(F)(F)F)cc4)CC3)cc(OCC)c2)c1` [Compound B2N056-01, 4-[4-[[3-Ethoxy-5-(5-ethoxypyridin-3-yl)phenyl]methyl]piperazin-1-yl]-N-(3,3,3-trifluoropropylsulfonyl)benzamide], for which, under setting [3], the “ASMS ratio (%) n = 1” value was 0.0%. Also, under setting [4], the “ASMS ratio (%) n = 2” value is recorded as 0.0%.

Turning to `CCOc1cccc(-c2cc(CN3CCN(c4ccc(C(=O)NS(=O)(=O)CCC(F)(F)F)nn4)CC3)cc(OCC)c2)c1` [Compound B2N081-01], the “ASMS ratio (%) n = 1” value under setting [3] is 0.0%. Moreover, the “ASMS ratio (%) n = 2” value under setting [4] is recorded as 0.0%.

On to `CCOc1cccc(-c2ccc(CN3CCN(c4ccc(C(=O)NS(=O)(=O)C(C)(C)C)nn4)CC3)cc2C)c1` [Compound B2L073-01], for which the “ASMS ratio (%) n = 1” value under setting [1] is on record as 0.0%. Further, under setting [2], the “ASMS ratio (%) n = 2” value stood at 0.0%.

With `CCOc1cncc(-c2cc(CN3CCN(c4ccc(C(=O)NS(=O)(=O)CCC(F)(F)F)nn4)CC3)cc(C(F)(F)F)c2)c1` [Compound B2N088-01, 6-[4-[[3-(5-Ethoxypyridin-3-yl)-5-(trifluoromethyl)phenyl]methyl]piperazin-1-yl]-N-(3,3,3-trifluoropropylsulfonyl)pyridazine-3-carboxamide], the “ASMS ratio (%) n = 1” value under setting [3] was 0.0%. For the same compound, the “ASMS ratio (%) n = 2” value under setting [4] was 0.0%.

Take `CCOc1cncc(-c2cc(CN3CCN(c4ccc(C(=O)NS(=O)(=O)C(C)(C)C)nn4)CC3)cc(OCC)c2)c1` [Compound B2L082-01]: under setting [3], the “ASMS ratio (%) n = 1” value worked out at 2.6%. Also, the “ASMS ratio (%) n = 2” value under setting [4] is listed as −1.2%.

Regarding `CCOc1cccc(-c2ccc(CN3CCN(c4ccc(C(=O)NS(C)(=O)=O)cc4)CC3)cc2C)c1` [Compound B2I047-01, 4-[4-[[4-(3-Ethoxyphenyl)-3-methylphenyl]methyl]piperazin-1-yl]-N-methylsulfonylbenzamide], under setting [1], the “ASMS ratio (%) n = 1” value was determined as 0.8%. The “ASMS ratio (%) n = 2” value under setting [2] was 1.4%.

As for `CCOc1cccc(-c2cc(CN3CCN(c4ccc(C(=O)NS(=O)(=O)c5ccc(NCCSc6ccccc6)c(C(F)(F)F)c5)nn4)CC3)cc(OC(F)(F)F)c2)c1` [Compound B2R089-01, 6-[4-[[3-(3-Ethoxyphenyl)-5-(trifluoromethoxy)phenyl]methyl]piperazin-1-yl]-N-[4-(2-phenylsulfanylethylamino)-3-(trifluoromethyl)phenyl]sulfonylpyridazine-3-carboxamide], under setting [3], the “ASMS ratio (%) n = 1” value is reported as 3.4%. Moreover, under setting [4], the “ASMS ratio (%) n = 2” value is listed as −9.2%.

As to `CCCNC(=O)c1ccc(N2CCN(C(=O)c3cc(-c4cccc(OCC)c4)cs3)CC2)cc1` [Compound B1M023-01], under setting [5], the “ASMS ratio (%) n = 1” value is given as 1.4%. In addition, the “ASMS ratio (%) n = 2” value under setting [6] is −3.0%.

With `CCOc1cccc(-c2ccc(C(=O)N3CCN(c4ccc(C(=O)NS(=O)(=O)C(C)(C)C)nn4)CC3)c3ccccc23)c1` [Compound B2L013-01], the “ASMS ratio (%) n = 1” value under setting [1] turned out to be 0.0%. Further, under setting [2], the “ASMS ratio (%) n = 2” value was found to be 0.0%.

In the case of `CCCNC(=O)c1ccc(N2CCN(C(=O)c3ccc(-c4cncc(OCC)c4)c(C)c3)CC2)cc1` [Compound B1M026-01], under setting [5], the “ASMS ratio (%) n = 1” value worked out at 0.9%. For the same compound, the “ASMS ratio (%) n = 2” value under setting [6] was 0.9%.

`CCOc1cccc(-c2ccccc2CN2CCN(c3ccc(C(=O)NS(C)(=O)=O)cc3)CC2)c1` [Compound B2I045-01, 4-[4-[[2-(3-Ethoxyphenyl)phenyl]methyl]piperazin-1-yl]-N-methylsulfonylbenzamide]: the “ASMS ratio (%) n = 1” value under setting [1] was −0.3%. Under setting [2], the “ASMS ratio (%) n = 2” value turned out to be 0.2%.

Turning to `CCOc1cncc(C#Cc2cncc(C(=O)N3CCN(c4ccc(C(=O)NS(=O)(=O)C(C)(C)C)cc4)CC3)c2)c1` [Compound B2L032-01, N-tert-Butylsulfonyl-4-[4-[5-[2-(5-ethoxypyridin-3-yl)ethynyl]pyridine-3-carbonyl]piperazin-1-yl]benzamide], the “ASMS ratio (%) n = 1” value under setting [1] is reported as 0.0%. Further, the “ASMS ratio (%) n = 2” value under setting [2] was −1.0%.

Turning to `CCCNC(=O)c1ccc(N2CCN(C(=O)c3cc(-c4cncc(OCC)c4)cc(C(C)(C)C)c3)CC2)nn1` [Compound B1M016-01], the “ASMS ratio (%) n = 1” value under setting [5] was found to be 0.0%. Moreover, under setting [6], the “ASMS ratio (%) n = 2” value is on record as 0.0%.

Regarding `CCOc1cncc(-c2ccc(C(=O)N3CCN(c4ccc(C(=O)NS(=O)(=O)C(C)(C)C)cc4)CC3)cc2C)c1` [Compound B2L026-01, N-tert-Butylsulfonyl-4-[4-[4-(5-ethoxypyridin-3-yl)-3-methylbenzoyl]piperazin-1-yl]benzamide], the “ASMS ratio (%) n = 1” value under setting [1] was found to be 0.0%. Moreover, under setting [2], the “ASMS ratio (%) n = 2” value worked out at 0.0%.

With `CCOc1cccc(C#Cc2cc(C(=O)N3CCN(c4ccc(C(=O)N(C)CC56CC7CC(CC(C7)C5)C6)nn4)CC3)cc(C(F)(F)F)c2)c1` [Compound B3A019-01, N-(1-Adamantylmethyl)-6-[4-[3-[2-(3-ethoxyphenyl)ethynyl]-5-(trifluoromethyl)benzoyl]piperazin-1-yl]-N-methylpyridazine-3-carboxamide], the “ASMS ratio (%) n = 1” value under setting [5] was 2.6%. The “ASMS ratio (%) n = 2” value under setting [6] is listed as −2.3%.

In the case of `CCOc1cncc(-c2cc(OC)c(CN3CCN(c4ccc(C(=O)NS(=O)(=O)c5ccc(NCCSc6ccccc6)c(C(F)(F)F)c5)nn4)CC3)c(OC)c2)c1` [Compound B2R086-01, 6-[4-[[4-(5-Ethoxypyridin-3-yl)-2,6-dimethoxyphenyl]methyl]piperazin-1-yl]-N-[4-(2-phenylsulfanylethylamino)-3-(trifluoromethyl)phenyl]sulfonylpyridazine-3-carboxamide], the “ASMS ratio (%) n = 1” value under setting [3] is 0.0%. Besides, the “ASMS ratio (%) n = 2” value under setting [4] amounted to 0.0%.

Regarding `CCOc1cncc(-c2cc(C(=O)N3CCN(c4ccc(C(=O)NS(=O)(=O)CCC(F)(F)F)nn4)CC3)cc(C(F)(F)F)c2)c1` [Compound B2N018-01, 6-[4-[3-(5-Ethoxypyridin-3-yl)-5-(trifluoromethyl)benzoyl]piperazin-1-yl]-N-(3,3,3-trifluoropropylsulfonyl)pyridazine-3-carboxamide], the “ASMS ratio (%) n = 1” value under setting [3] stood at 0.0%. Under setting [4], the “ASMS ratio (%) n = 2” value is reported as 1.0%.

With `CCOc1cncc(C#Cc2cncc(C(=O)N3CCN(c4ccc(C(=O)NS(=O)(=O)CCC(F)(F)F)cc4)CC3)c2)c1` [Compound B2N032-01, 4-[4-[5-[2-(5-Ethoxypyridin-3-yl)ethynyl]pyridine-3-carbonyl]piperazin-1-yl]-N-(3,3,3-trifluoropropylsulfonyl)benzamide], the “ASMS ratio (%) n = 1” value under setting [3] is given as −0.4%. Moreover, the “ASMS ratio (%) n = 2” value under setting [4] is given as −1.0%.

For the compound `CCOc1cccc(-c2cc(OC)c(CN3CCN(c4ccc(C(=O)NS(C)(=O)=O)cc4)CC3)c(OC)c2)c1` [Compound B2I059-01, 4-[4-[[4-(3-Ethoxyphenyl)-2,6-dimethoxyphenyl]methyl]piperazin-1-yl]-N-methylsulfonylbenzamide], under setting [1], the “ASMS ratio (%) n = 1” value is recorded as 0.0%. Further, under setting [2], the “ASMS ratio (%) n = 2” value is 0.0%.

For `CCCNC(=O)c1ccc(N2CCN(C(=O)c3cncc(C#Cc4cccc(OCC)c4)c3)CC2)nn1` [Compound B1M009-01], under setting [6], the “ASMS ratio (%) n = 2” value came to 0.0%.

For the compound `CCCNC(=O)c1ccc(N2CCN(C(=O)c3ccccc3C#Cc3cncc(OCC)c3)CC2)nn1` [Compound B1M008-01], the “ASMS ratio (%) n = 2” value under setting [6] came out at 0.0%.

For `CCOc1cncc(-c2ccc(CN3CCN(c4ccc(C(=O)NS(=O)(=O)CCC(F)(F)F)nn4)CC3)c(OC)c2)c1` [Compound B2N080-01, 6-[4-[[4-(5-Ethoxypyridin-3-yl)-2-methoxyphenyl]methyl]piperazin-1-yl]-N-(3,3,3-trifluoropropylsulfonyl)pyridazine-3-carboxamide], the “ASMS ratio (%) n = 1” value under setting [3] worked out at 0.0%. Besides, under setting [4], the “ASMS ratio (%) n = 2” value is recorded as 0.0%.
